Measured values: paper PMC8213153 (PLoS ONE, 2021)
Converted amounts (≈) assume the structure as drawn. Like-named read-outs stand apart in the source and are kept apart here.

Legend:
Assay type in all cases: cell-based
[1] = tested on: IL-10; assay: IL-10 level of virus-infected Vero cells (ELISA)
Description: (§1) To enable measurement of IL-6, IL-10 and TNF-α levels, the culture medium of the treated cells was collected in sterile micro-tubes and centrifuged at 3,500 rpm for 20 minutes. The supernatants were carefully collected and diluted with aquadest at a 1:5 volume ratio and vortexed until homogenous. The samples were deposited onto a well-plate, added to ELISA reagents (Bioassay Technology Laboratory, Shanghai, China), and incubated at 37°C for 60 minutes. Reagent substrate solution was then added to the well and incubated for ten minutes at 37°C. The samples were measured for antigen concentration using the optical density (OD) plotted into the standard curves of IL-6, IL-10, and TNF-α.

[2] = tested on: IL-6; assay: IL-6 level of virus-infected Vero cells (ELISA)
Description: as §1

[3] = tested on: TNF-α; assay: TNF-α level of virus-infected Vero cells (ELISA)
Description: as §1

[4] = Cytotoxicity (MTT) assay of single and dual combinatory drugs; conditions: human
Description: Each tablet containing drugs was triturated and mixed until homogenous. Approximately 50 mg equivalent mass of drugs were weighed and added to dimethyl sulfoxide in order to solubilize the drugs. The suspension was sonicated in a water bath for 15 minutes before being added to Rosewell Park Memorial Institute (RPMI) media, sonicated again and vortexed to mix it until homogenous. The suspension was then filtered through a polycarbonate membrane with a pore size of 0.45 μm and then a pore size of 0.22 μm under aseptic conditions. The filtrate was mixed with 10% foetal bovine serum and penicillin streptomycin before being vortexed to produce a homogenous mixture to be used as a stock solution. The samples were prepared by diluting the stock solution of each drug with RPMI complete media at an appropriate level of dilution to produce a determined concentration. The dual combinatory drugs mixtures were prepared by mixing appropriate amounts of two drug stock solutions in order to produce a final concentration at the required level. The combinatory drugs were evaluated at both constant and non-constant ratios to evaluate their effects on the cytotoxicity, including; antagonistic, synergistic, or additive. A constant ratio of the mixture was achieved by adding drug solutions at the same ratio, thereby increasing each drug concentration, to produce dose escalation. In contrast, at a non-constant ratio, a fixed determined concentration of drug was added to increased doses of other drug solution in order to produce different levels of drug concentration.
The cytotoxic concentration (CC50) of drugs was performed by means of MTT assay at the Stem Cell Research and Development Center, Universitas Airlangga using human umbilical cord mesenchymal stem cells which had been obtained from human placenta tissue as approved by the Ethical Committee of Universitas Airlangga Hospital (Certificate number 101/KEH/2019 dated January 10, 2019). The cells were prepared as the primary cell culture and used for the cytotoxicity assay because of their sensitivity to chemicals. Cells were seeded into 96-well microplates at a concentration of 1x10^3 cells/well in 100 μL Alpha Minimum Essentials Medium (α-MEM, Gibco, USA) supplemented with 10% foetal bovine serum, 1% penicillin-streptomycin and 1% amphotericin-B. The plates were then incubated in a CO2 incubator at 37°C with 5% CO2 for 24 hours, at which point, the supernatant was replaced with α-MEM containing drugs at each concentration and incubated for a further 48 hours. Approximately 25μL of 3-(4,5-Dimethylthiazol-2-yl)-2,5-diphenyl tetrazolium-bromide (MTT) reagent at a concentration of 5mg/mL was subsequently added to each well and incubated for four hours at 37°C with 5% CO2. Purple formazan crystals were formed and observed under an inverted microscope. Dimethyl sulfoxide was added to each well with the complete solubilisation of formazan crystals subsequently being observed. The greater the number of formazan crystals formed, the lower the toxicity of the samples which were read for optical density of formazan using a multi reader at a measurement wavelength of 595 nm (Promega Glomax, USA). The CC50 value was analyzed by CompuSyn software (the ComboSyn Inc., accessed from www.combosyn.com).
In this study, the cytotoxicity assay was evaluated for single and dual combinatory drugs during a period of 48 hours of drug incubation. This assay was intended to evaluate the toxicity of dual combinatory drugs on normal cells. The combination ratios were calculated taking into consideration the usual therapeutic doses and plasma peak concentrations of the drugs. To determine this cytotoxicity, the drugs were mixed at both constant and non-constant ratios.

[5] = tested on: SARS-CoV-2 virus; assay: microbe, parasite or virus in culture; conditions: for Drug concentration that produced an undetected virus copy number / IC50 / Results (virus detection): MoI 0.04; for Drug concentration that produced an undetected virus copy number: at 24, 48, and/or 72 hours' incubation; for IC50: Severe acute respiratory syndrome coronavirus 2, Vero; for Results (virus detection): at the drug concentration of the same line of Table 4
[6] = HYDROXYCHLOROQUINE-DOXYCYCLINE series, read-out: Cell viability (%)
[7] = LOPIRITO-DOXYCYCLINE series, read-out: Cell Viability (%)
[8] = FAVIPIRAVIR-AZITHROMYCIN series, read-out: Cell Viability (%)
[9] = HYDROXYCHLOROQUINE-FAVIPIRAVIR series, read-out: Cell Viability (%)

## C[C@H]1c2cccc(O)c2C(=O)C2=C(O)[C@]3(O)C(=O)C(C(N)=O)=C(O)[C@@H](N(C)C)[C@@H]3[C@@H](O)[C@@H]21 [DOXY, Doxycycline]
[1]; 1 μg/mL, 24-h
  IL-10: 35.31 ± 0.22 pg/mL
[1]; 1 μg/mL, 48, 72h
  IL-10: ↗↗ (1 μg/mL; 48, 72h)
[1]; 1 μg/mL, 48-h
  IL-10: 219.74 ± 0.08 pg/mL
[1]; 1 μg/mL, 72-h
  IL-10: 415.82 ± 0.23 pg/mL
[1]; 15 μg/mL, 24-h
  IL-10: 35.31 ± 1.53 pg/mL
[1]; 15 μg/mL, 48-h
  IL-10: 219.74 ± 1.41 pg/mL
[1]; 15 μg/mL, 72-h
  IL-10: 702.97 ± 0.07 pg/mL
[2]; 1 μg/mL, 24-h
  IL-6: 21.06 ± 1.43 ng/L
[2]; 1 μg/mL, 48-h
  IL-6: 36.93 ± 0.93 ng/L
[2]; 1 μg/mL, 72-h
  IL-6: 40.56 ± 0.56 ng/L
[2]; 1 μg/mL, 24h
  IL-6: ↘↘ (1 μg/mL; 24h)
[2]; 15 μg/mL, 24-h
  IL-6: 13.34 ± 0.86 ng/L
[2]; 15 μg/mL, 48-h
  IL-6: 37.98 ± 0.94 ng/L
[2]; 15 μg/mL, 72-h
  IL-6: 43.01 ± 0.05 ng/L
[3]; 1 μg/mL, 24-h
  TNF-α: 1.98 ± 0.00 pg/mL
[3]; 1 μg/mL, 48-h
  TNF-α: 408.19 ± 0.77 pg/mL
[3]; 1 μg/mL, 72-h
  TNF-α: 511.16 ± 3.09 pg/mL
[3]; 1 μg/mL, 24h
  TNF-α: ↘↘ (1 μg/mL; 24h)
[3]; 15 μg/mL, 24-h
  TNF-α: 1.98 ± 0.84 pg/mL
[3]; 15 μg/mL, 48-h
  TNF-α: 408.19 ± 0.84 pg/mL
[3]; 15 μg/mL, 72-h
  TNF-α: 529.12 ± 0.46 pg/mL
[4]; [6]
  viability at 48 h, 0.2 μg/mL: 96.9%
  viability at 48 h, 2 μg/mL: 112%
  viability at 48 h, 10 μg/mL: 117%
  viability at 48 h, 100 μg/mL: 120%
  viability at 48 h, 400 μg/mL: 96.5%
[4]; LOPIRITO-DOXY experiment (Fig 6), 48 hours, CompuSyn, n = 3, read-out: CC50
  CC50 at 48 h: 16500 µg/mL
[4]; [7]
  viability at 48 h, 0.2 μg/mL: 103%
  viability at 48 h, 2 μg/mL: 104%
  viability at 48 h, 10 μg/mL: 105%
  viability at 48 h, 100 μg/mL: 92.8%
  viability at 48 h, 400 μg/mL: 91.7%
[5]; 1 μg/mL, 24-h
  Virus Titer: 38.42 viral protein fg/mL
[5]; 15 μg/mL, 24-h
  Virus Titer: 36.90 viral protein fg/mL
[5]; 15 μg/mL, 48-h
  Virus Titer: 37.85 viral protein fg/mL
[5]; 15 μg/mL, 72-h
  Virus Titer: 39.15 viral protein fg/mL
[5]
  Drug concentration that produced an undetected virus copy number: 37.5 µg/mL
  Results (virus detection): 24, 48, 72h virus undetected
[5]; 24h
  IC50: 18 µg/mL (≈ 40.5 µM)
[5]; 48h
  IC50: 4.7 µg/mL (≈ 10.6 µM)
[5]; 72h
  IC50: 0.4 µg/mL (≈ 0.9 µM)

## NC(=O)c1nc(F)c[nH]c1=O [FAVI, Favipiravir]
[1]; 10 μg/mL, 24-h
  IL-10: 31.38 ± 1.80 pg/mL
[1]; 10 μg/mL, 48-h
  IL-10: 125.32 ± 1.57 pg/mL
[1]; 10 μg/mL, 72-h
  IL-10: 465.82 ± 0.57 pg/mL
[1]; 15 μg/mL, 24-h
  IL-10: 27.97 ± 0.29 pg/mL
[1]; 15 μg/mL, 48-h
  IL-10: 100.89 ± 1.28 pg/mL
[1]; 15 μg/mL, 72-h
  IL-10: 411.24 ± 0.24 pg/mL
[1]; 10, 15 μg/mL, 48, 72h
  IL-10: ↗↗ (10, 15 μg/mL; 48, 72h)
[2]; 10 μg/mL, 24-h
  IL-6: 14.09 ± 1.53 ng/L
[2]; 10 μg/mL, 48-h
  IL-6: 37.28 ± 0.37 ng/L
[2]; 10 μg/mL, 72-h
  IL-6: 60.21 ± 0.49 ng/L
[2]; 15 μg/mL, 24-h
  IL-6: 22.18 ± 1.09 ng/L
[2]; 15 μg/mL, 48-h
  IL-6: 39.75 ± 1.67 ng/L
[2]; 15 μg/mL, 72-h
  IL-6: 68.61 ± 1.04 ng/L
[2]; to 100 μg/mL, 48h
  IL-6: ↘↘ (to 100 μg/mL; 48h)
[3]; 10 μg/mL, 24-h
  TNF-α: 3.09 ± 1.23 pg/mL
[3]; 10 μg/mL, 48-h
  TNF-α: 416.51 ± 1.28 pg/mL
[3]; 10 μg/mL, 72-h
  TNF-α: 711.37 ± 0.70 pg/mL
[3]; 15 μg/mL, 24-h
  TNF-α: 98.18 ± 1.55 pg/mL
[3]; 15 μg/mL, 48-h
  TNF-α: 467.47 ± 3.11 pg/mL
[3]; 15 μg/mL, 72-h
  TNF-α: 725.48 ± 3.51 pg/mL
[3]; 10 ppm, 24h
  TNF-α: ↘↘ (10 ppm; 24h)
[4]; CC50
  CC50 at 48 h: > 400 µg/mL
[4]; [8]
  viability at 48 h, 0.2 μg/mL: 105%
  viability at 48 h, 2 μg/mL: 104%
  viability at 48 h, 10 μg/mL: 109%
  viability at 48 h, 100 μg/mL: 110%
  viability at 48 h, 400 μg/mL: 126%
[4]; [9]
  viability at 48 h, 0.2 μg/mL: 92.5%
  viability at 48 h, 2 μg/mL: 71.9%
  viability at 48 h, 10 μg/mL: 72.4%
  viability at 48 h, 100 μg/mL: 66.2%
  viability at 48 h, 400 μg/mL: 66.8%
[5]; 10 μg/mL, 48-h
  Virus Titer: 37.37 viral protein fg/mL
[5]; 15 μg/mL, 24-h
  Virus Titer: 38.87 viral protein fg/mL
[5]
  Drug concentration that produced an undetected virus copy number: 37.5 µg/mL
  Results (virus detection): 24, 48, 72h virus still detected with decreasing number
[5]; 24h
  IC50: 9.6 µg/mL (≈ 61.1 µM)
[5]; 48h
  IC50: 18.6 µg/mL (≈ 118 µM)
[5]; 72h
  IC50: < 10 µg/mL
